# Patent publication US9561228B2 (Celgene Avilomics Research, Inc., priority 2013, dated 2017)
# How the values were obtained:
# [1] = system: ERK1/2 phosphorylation of p90RSK in HT29 cells; test: pRSK MSD Assay in HT29 cells; assay type: cell-based; settings: Homo sapiens, HT-29, read-out: ERK1/ERK2 PRSK MSD HT29 EC50
# Experimental: The protocol below describes an assay to measure the kinase activity of ERK1/2 to phosphorylate a substrate, p90RSK, in the presence or absence of a test compound. This experiment was conducted using a Mesoscale Discovery plate. The day before the assay, HT29 cells were split and plated at 50,000 cells/well in complete growth media. After allowing cells to adhere, the media was removed and replaced with media containing 0.1% FBS and incubated overnight. Blank MSD plates (Mesoscale Discovery, Cat # L15XA3) were coated with 25 μl/well RSK capture antibody (BD Biosciences, Cat. #610226) and incubated at 4° C. overnight, then blocked with 150 μl of 3% BSA solution. The next day, the media from the cell culture plate was removed and replaced with 100 μl of media containing a test compound and incubated for 120 minutes at 37° C. The media was removed and replaced with 55 μl per well of lysis buffer with protease inhibitors (Roche Biosciences, Cat. #11836170001) and phosphatase inhibitors (Sigma-Aldrich, Cat. # P-0044 and P-5726), followed by incubation at 4° C. for 30 minutes. 50 μl of lysate was transferred to a blocked MSD plate, followed by incubation at room temperature for 2 hours under constant shaking. The plate was washed 3 times with MSD wash buffer (Mesoscale Discovery, Cat. # R617TX), and 25 μl/well phospho-RSK (pRSK) detection antibody (Cell Signaling Technology, Cat. #9335) was added with Sulfo-tagged detection antibody (Mesoscale Discovery, Cat. # R32AB-1) diluted in 1% BSA in MSD wash buffer. This mixture was incubated for 1 hour at room temperature under constant shaking. The plate was washed 3 times, and 150 μl 1×MSD read buffer was added, followed by signal detection in an MSD plate reader.
# [2] = system: HT-29 cells (colorectal adenocarcinoma); test: Inhibition of cancer cell proliferation, HT-29 (CellTiterGlo, 72 hours); assay type: cell-based; settings: Homo sapiens
# Experimental: Measurement of Inhibition of Cancer Cell Proliferation (HT-29/Colorectal Adenocarcinoma)
# The following protocol used an HT-29 cell line, which cell line is a model for colorectal adenocarcinoma. HT-29 cells were split and 3000 cells in 100 μl of growth medium were added per well of a flat-bottom 96-well plate. A two-fold test compound solution in serum-free RPM1640 was made, starting at 5,000 nM. Then, 3-fold serial dilutions were made across the plate from well 1 to well 11. Well 12, the last well in a row on the plate, was left as untreated control. 100 μl compound solutions were then transferred to the wells, so the total volume of media was 200 μl per well. Plates were returned to a 37° C. incubator, and the cells were cultured for 72 hours. To measure cell proliferation after 72 hours, media was discarded from the plates, 50 μl/well of fresh medium was added, and 50 μl CellTiterGlo solution was added (Promega Cat#G7573). The plate was covered with a dark lid and incubated for 10 min. A white sealing tape was applied to the bottom of the plate, and the plate was read in a luminescence plate reader. […] A 2-fold serial dilution was used to generate 8 cell densities from 50,000-390 cells per well in 50 μl media. 50 μl CellTiterGlo was added per well, and the plate was read in a luminescence plate reader after 10 min. The reading was plotted vs. cell number to generate a standard curve and the equation of the curve fit. The compound-treated sample luminescence readings were converted to cell numbers using the curve-fit equation. The percent of inhibition, using untreated control as 100% growth, was then calculated. GI50 was then calculated by GraphPad Prism.
# MEK1 activated ERK1 = target: T1, MEK1 activated ERK1 (Homo sapiens, UniProt P27361); test: Omnia continuous-read kinase assay for potency against MEK1 activated ERK1; assay type: biochemical; settings: MEK1 activated ERK1, ATP at KM; read-out: ERK1 Omnia WT ATP KM IC50
# T1 construct: purchased Millipore (Billerica, Mass.) 14-439-K
# How it was run: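 Apparent IC50 came from initial reaction slopes (RFU vs time) plotted against log inhibitor with a variable-slope fit. Reactions were started with ERK1 (4 nM final) added to 50 μM ATP, roughly at its appKM, and 10 μM Sox-conjugated ST17 peptide in 20 mM Tris pH 7.5, 5 mM MgCl2. Fluorescence was monitored every 71 seconds.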
# T1 sequence (P27361 whole entry): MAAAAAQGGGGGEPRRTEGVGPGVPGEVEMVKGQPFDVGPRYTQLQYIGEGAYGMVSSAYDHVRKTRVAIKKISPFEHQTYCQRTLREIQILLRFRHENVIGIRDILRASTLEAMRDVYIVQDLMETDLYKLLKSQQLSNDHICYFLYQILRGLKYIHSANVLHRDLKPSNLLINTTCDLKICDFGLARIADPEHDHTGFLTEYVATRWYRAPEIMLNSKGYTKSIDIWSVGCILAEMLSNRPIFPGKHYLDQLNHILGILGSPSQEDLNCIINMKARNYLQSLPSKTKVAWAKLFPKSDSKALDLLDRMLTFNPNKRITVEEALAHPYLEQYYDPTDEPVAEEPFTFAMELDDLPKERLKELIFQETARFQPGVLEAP
EC50 [1],GI50 [2],IC50 (MEK1 activated ERK1),Compound
,> 1 µM,,CCOCCC(=O)Nc1ccccc1Nc1nc(Nc2cc(C(N)=O)ccc2C)ncc1Cl [Compound I-130]
> 1 µM,,> 1 µM,"C/C=C/C(=O)Nc1cc(F)ccc1Nc1nc(N[C@@H]2CCC[C@H](C(N)=O)C2)ncc1C(F)(F)F (racemic) [Compound I-6, Rac-(E)-3-((4-((2-(but-2-enamido)-4-fluorophenyl)amino)-5-(trifluoromethyl)pyrimidin-2-yl)amino)-cis-cyclohexanecarboxamide]"
> 1 µM,,0.101 to 0.5 µM,"C=CC(=O)Nc1ccccc1Nc1nc(Nc2cncc(C(N)=O)c2)ncc1C(F)(F)F [Compound I-63, 5-((4-((2-Acrylamidophenyl)amino)-5-(trifluoromethyl)pyrimidin-2-yl)amino)nicotinamide]"
> 1 µM,,0.101 to 0.5 µM,"CC(=O)N1CCC[C@H](Nc2ncc(C(F)(F)F)c(Nc3ccccc3NC(=O)CCl)n2)C1 [Compound I-30, (S)—N-(2-((2-((1-Acetylpiperidin-3-yl)amino)-5-(trifluoromethyl)pyrimidin-4-yl)amino)phenyl)-2-chloroacetamide]"
> 1 µM,,0.501 to 0.999 µM,"C=CC(=O)Nc1ccccc1Nc1nc(N[C@H]2CCCN(C(=O)[C@H](C)O)C2)ncc1Cl [Compound I-138, N-(2-((5-chloro-2-(((S)-1-((S)-2-hydroxypropanoyl)piperidin-3-yl)amino)pyrimidin-4-yl)amino)phenyl)acrylamide]"
> 1 µM,,0.101 to 0.5 µM,"O=C(CCl)N[C@@H]1CCCC[C@H]1Nc1nc(N[C@H]2CCCN(C(=O)CO)C2)ncc1C(F)(F)F [Compound I-35, 2-Chloro-N-((1R,2R)-2-((2-(((S)-1-(2-hydroxyacetyl)piperidin-3-yl)amino)-5-(trifluoromethyl)pyrimidin-4-yl)amino)cyclohexyl)acetamide]"
0.101 to 0.5 µM,,0.101 to 0.5 µM,"C=CC(=O)Nc1ccccc1Nc1nc(Nc2ccc(F)cc2OC)ncc1Cl [Compound I-210, N-(2-((5-chloro-2-((4-fluoro-2-methoxyphenyl)amino)pyrimidin-4-yl)amino)phenyl)acrylamide]"

# Further lines, the compound ahead of its results:
Compound,EC50 [1],GI50 [2],IC50 (MEK1 activated ERK1)
"C=CC(=O)Nc1ccccc1Nc1nc(Nc2cc(C(N)=O)ccc2C#N)ncc1Cl [Compound I-192, 3-((4-((2-acrylamidophenyl)amino)-5-chloropyrimidin-2-yl)amino)-4-cyanobenzamide]",< 0.1 µM,< 0.1 µM,
"C=CC(=O)Nc1ccccc1Nc1nc(Nc2cc(C(=O)NOC)ccc2OC)ncc1Cl [Compound I-187, 3-((4-((2-acrylamidophenyl)amino)-5-chloropyrimidin-2-yl)amino)-N,4-dimethoxybenzamide]",0.101 to 0.5 µM,,0.101 to 0.5 µM
"C=CC(=O)Nc1ccccc1Nc1nc(Nc2cc(C(N)=O)c(OCCCNC(=O)C#CC)cc2C)ncc1Cl [Compound I-305, 5-((4-((2-acrylamidophenyl)amino)-5-chloropyrimidin-2-yl)amino)-2-(3-(but-2-ynamido)propoxy)-4-methylbenzamide]",> 1 µM,,0.101 to 0.5 µM
"C=CC(=O)Nc1ccccc1Oc1nc(Nc2ccc(N3CCN(C(C)=O)CC3)cc2OC)ncc1C(N)=O [Compound I-258, 2-((4-(4-acetylpiperazin-1-yl)-2-methoxyphenyl)amino)-4-(2-acrylamidophenoxyl)pyrimidine-5-carboxamide]",,> 1 µM,
"C=CC(=O)N(C)c1ccccc1Nc1nc(N[C@@H]2CCC[C@H](C(=O)NOC)C2)ncc1Cl (racemic) [Compound I-106, Rac-cis-3-((5-chloro-4-((2-(N-methylacrylamido)phenyl)amino)pyrimidin-2-yl)amino)-N-methoxycyclohexanecarboxamide]",> 1 µM,,> 1 µM
"C=CC(=O)Nc1ccccc1Nc1nc(N[C@H]2CCCN(C(=O)C(C)(C)O)C2)ncc1Cl [Compound I-135, (S)—N-(2-((5-chloro-2-((1-(2-hydroxy-2-methylpropanoyl)piperidin-3-yl)amino)pyrimidin-4-yl)amino)phenyl)acrylamide]",> 1 µM,,0.101 to 0.5 µM
"C=CC(=O)N[C@@H]1CCCC[C@H]1Nc1nc(Nc2cc(C(=O)NOC)ccc2C)ncc1Cl [Compound I-190, 3-((4-(((1R,2R)-2-acrylamidocyclohexyl)amino)-5-chloropyrimidin-2-yl)amino)-N-methoxy-4-methylbenzamide]",,> 1 µM,
"C=C(C)S(=O)(=O)Nc1cc(F)ccc1Nc1nc(Nc2cc(C(C)=O)ccc2C)ncc1C(F)(F)F [Compound I-99, N-(2-((2-((5-acetyl-2-methylphenyl)amino)-5-(trifluoromethyl)pyrimidin-4-yl)amino)-5-fluorophenyl)prop-1-ene-2-sulfonamide]",> 1 µM,,0.501 to 0.999 µM
"C#CC(=O)NCCCOc1cc(C)c(Nc2ncc(Cl)c(Nc3ccccc3NC(=O)C=C)n2)cc1C(N)=O [Compound I-227, 5-((4-((2-acrylamidophenyl)amino)-5-chloropyrimidin-2-yl)amino)-4-methyl-2-(3-propiolamidopropoxy)benzamide]",> 1 µM,,0.101 to 0.5 µM
"C=CC(=O)Nc1ccccc1Nc1nc(N[C@@H]2CCC[C@H](C(=O)O)C2)ncc1C(F)(F)F (racemic) [Compound I-14, Rac-3-((4-((2-acrylamidophenyl)amino)-5-(trifluoromethyl)pyrimidin-2-yl)amino)-cis-cyclohexanecarboxylic acid]",> 1 µM,,0.101 to 0.5 µM
"C=CC(=O)Nc1ccccc1Nc1nc(Nc2cc(C(=O)NOCCO)ccc2OC)ncc1Cl [Compound I-194, 3-((4-((2-acrylamidophenyl)amino)-5-chloropyrimidin-2-yl)amino)-N-(2-hydroxyethoxy)-4-methoxybenzamide]",0.501 to 0.999 µM,,0.101 to 0.5 µM
"CC(=O)N1CCC[C@H](Nc2ncc(C(F)(F)F)c(NC3C4C=CC(C4)C3C(=O)NC#N)n2)C1 (mixture of isomers) [Compound I-25, Rac-3-((2-(((S)-1-acetylpiperidin-3-yl)amino)-5-(trifluoromethyl)pyrimidin-4-yl)-cis-amino)-N-cyanobicyclo[2.2.1]hept-5-ene-2-carboxamide]",> 1 µM,,> 1 µM
"C=C(C)C(=O)Nc1cc(F)ccc1Nc1nc(N[C@@H]2CCC[C@H](C(N)=O)C2)ncc1Cl (racemic) [Compound I-114, Rac-cis-3-((5-chloro-4-((4-fluoro-2-methacrylamidophenyl)amino)pyrimidin-2-yl)amino)cyclohexanecarboxamide]",> 1 µM,,> 1 µM
"C=CC(=O)N(C)c1ccccc1Nc1nc(Nc2cc(C(N)=O)ccc2C#N)ncc1Cl [Compound I-196, 3-((5-chloro-4-((2-(N-methylacrylamido)phenyl)amino)pyrimidin-2-yl)amino)-4-cyanobenzamide]",> 1 µM,,0.501 to 0.999 µM
"C=CC(=O)Nc1cc(F)ccc1Nc1nc(Nc2cc(C(N)=O)ccc2C#N)ncc1Cl [Compound I-207, 3-(4-(2-acrylamido-4-fluorophenylamino)-5-chloropyrimidin-2-ylamino)-4-cyanobenzamide]",> 1 µM,,0.101 to 0.5 µM
"C=CC(=O)N[C@@H]1CCCC[C@H]1Nc1nc(Nc2cc(C(N)=O)ccc2C)ncc1Cl (racemic) [Compound I-226, Rac-trans-3-((4-((2-acrylamidocyclohexyl)amino)-5-chloropyrimidin-2-yl)amino)-4-methylbenzamide]",0.501 to 0.999 µM,,0.501 to 0.999 µM
